Measured values as given in ChEMBL document CHEMBL5126531, “NAE modulators: A potential therapy for gastric carcinoma” (Eur J Med Chem, 2022).
One block for each compound: values may come before it.

Assays:
[1] = molecular target: T1, Ubiquitin-like modifier-activating enzyme ATG7 (Homo sapiens, UniProt O95352); test: Inhibition of His-tagged ATG7 (unknown origin) expressed in sf9 insect cells
T1 sequence (O95352 whole entry): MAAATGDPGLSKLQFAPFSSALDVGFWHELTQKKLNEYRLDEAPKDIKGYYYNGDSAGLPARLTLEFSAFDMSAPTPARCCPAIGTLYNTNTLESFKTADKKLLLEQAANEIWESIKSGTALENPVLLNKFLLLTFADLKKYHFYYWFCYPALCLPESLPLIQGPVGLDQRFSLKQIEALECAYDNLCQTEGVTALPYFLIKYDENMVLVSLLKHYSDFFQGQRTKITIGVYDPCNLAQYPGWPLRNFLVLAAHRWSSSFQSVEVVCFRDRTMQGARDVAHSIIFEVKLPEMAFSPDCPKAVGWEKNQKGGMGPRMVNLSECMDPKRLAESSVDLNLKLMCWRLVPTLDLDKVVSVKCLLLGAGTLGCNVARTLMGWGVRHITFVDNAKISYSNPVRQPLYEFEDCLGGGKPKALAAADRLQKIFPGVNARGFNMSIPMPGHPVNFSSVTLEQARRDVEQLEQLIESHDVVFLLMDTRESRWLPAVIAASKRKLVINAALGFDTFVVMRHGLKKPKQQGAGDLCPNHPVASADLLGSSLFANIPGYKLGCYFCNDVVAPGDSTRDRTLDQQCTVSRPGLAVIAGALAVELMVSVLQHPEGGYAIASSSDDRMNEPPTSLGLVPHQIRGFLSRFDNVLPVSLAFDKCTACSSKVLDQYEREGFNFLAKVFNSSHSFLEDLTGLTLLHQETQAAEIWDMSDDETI

SUMO-activating enzyme [2] = molecular target: T2, SUMO-activating enzyme (Homo sapiens, UniProt Q9UBT2); test: Inhibition of SAE1/UBA2 in human HCT-116 cells assessed as reduction in Ubc9-SUMO level incubated for 24 hrs by immunoblot analysis; format: cell-based
[3] = molecular target: T3, Ubiquitin-like modifier-activating enzyme 6 (Homo sapiens, UniProt A0AVT1); test: Inhibition of His-tagged UBA6 (unknown origin) expressed in sf9 insect cells
T3 sequence (A0AVT1 whole entry): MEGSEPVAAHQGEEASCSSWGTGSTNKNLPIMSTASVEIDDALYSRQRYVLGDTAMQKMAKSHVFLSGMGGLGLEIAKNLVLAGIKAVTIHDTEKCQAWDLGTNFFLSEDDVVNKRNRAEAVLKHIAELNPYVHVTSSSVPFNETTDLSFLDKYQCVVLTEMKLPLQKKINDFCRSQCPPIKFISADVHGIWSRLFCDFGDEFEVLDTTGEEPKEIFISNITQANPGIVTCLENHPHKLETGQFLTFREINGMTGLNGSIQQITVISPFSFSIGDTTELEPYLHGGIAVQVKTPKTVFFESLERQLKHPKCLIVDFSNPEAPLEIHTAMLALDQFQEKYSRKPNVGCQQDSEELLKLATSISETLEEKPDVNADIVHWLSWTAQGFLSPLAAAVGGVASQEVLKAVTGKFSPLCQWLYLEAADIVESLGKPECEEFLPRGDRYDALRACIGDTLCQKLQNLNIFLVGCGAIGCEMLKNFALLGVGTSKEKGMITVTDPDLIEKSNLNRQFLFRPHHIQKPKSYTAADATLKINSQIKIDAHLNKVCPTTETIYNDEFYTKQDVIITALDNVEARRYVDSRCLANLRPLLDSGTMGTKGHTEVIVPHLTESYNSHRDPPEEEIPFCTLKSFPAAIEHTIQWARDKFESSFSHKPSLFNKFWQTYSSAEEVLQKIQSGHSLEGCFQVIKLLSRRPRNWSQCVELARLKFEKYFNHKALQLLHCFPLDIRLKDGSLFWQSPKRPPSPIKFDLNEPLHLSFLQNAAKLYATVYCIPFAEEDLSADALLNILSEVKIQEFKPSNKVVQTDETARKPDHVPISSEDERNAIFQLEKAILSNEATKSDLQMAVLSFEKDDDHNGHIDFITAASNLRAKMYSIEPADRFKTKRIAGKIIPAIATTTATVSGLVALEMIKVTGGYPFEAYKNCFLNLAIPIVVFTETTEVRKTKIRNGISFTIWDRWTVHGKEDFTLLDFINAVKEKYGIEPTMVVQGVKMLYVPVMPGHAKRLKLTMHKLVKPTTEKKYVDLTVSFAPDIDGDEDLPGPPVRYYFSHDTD

[4] = molecular target: T4, NEDD8-conjugating enzyme Ubc12 (Homo sapiens, UniProt P61081); test: Inhibition of Ubc12 (unknown origin)-neddylation incubated for 30 mins in presence of ATP by Western blot analysis
T4 sequence (P61081 whole entry): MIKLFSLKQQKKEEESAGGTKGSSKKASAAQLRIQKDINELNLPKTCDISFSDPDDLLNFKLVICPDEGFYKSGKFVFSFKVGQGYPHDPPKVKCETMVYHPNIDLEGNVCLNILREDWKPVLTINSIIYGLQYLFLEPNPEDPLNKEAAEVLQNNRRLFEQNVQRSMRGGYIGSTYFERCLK

[5] = molecular target: T5, NEDD8-activating enzyme E1 regulatory subunit (Homo sapiens, UniProt Q13564); test: Inhibition of NAE (unknown origin)
T5 sequence (Q13564 whole entry): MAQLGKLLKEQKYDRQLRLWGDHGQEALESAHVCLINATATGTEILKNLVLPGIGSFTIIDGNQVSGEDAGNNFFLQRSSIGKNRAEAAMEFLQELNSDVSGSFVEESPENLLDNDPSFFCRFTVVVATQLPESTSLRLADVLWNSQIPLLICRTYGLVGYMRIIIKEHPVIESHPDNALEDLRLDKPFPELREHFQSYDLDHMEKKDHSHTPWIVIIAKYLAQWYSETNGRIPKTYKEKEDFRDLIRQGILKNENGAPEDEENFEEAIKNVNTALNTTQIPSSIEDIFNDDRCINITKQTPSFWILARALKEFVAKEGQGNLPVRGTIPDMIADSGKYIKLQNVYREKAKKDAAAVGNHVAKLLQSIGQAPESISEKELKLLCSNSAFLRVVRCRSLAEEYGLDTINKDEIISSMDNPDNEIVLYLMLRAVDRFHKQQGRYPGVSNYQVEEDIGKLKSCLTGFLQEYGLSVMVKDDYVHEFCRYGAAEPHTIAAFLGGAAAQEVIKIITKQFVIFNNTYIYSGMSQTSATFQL

[6] = molecular target: T6, Ubiquitin-like modifier-activating enzyme 1 (Homo sapiens, UniProt P22314); test: Inhibition of UAE (unknown origin)
T6 sequence (P22314 whole entry): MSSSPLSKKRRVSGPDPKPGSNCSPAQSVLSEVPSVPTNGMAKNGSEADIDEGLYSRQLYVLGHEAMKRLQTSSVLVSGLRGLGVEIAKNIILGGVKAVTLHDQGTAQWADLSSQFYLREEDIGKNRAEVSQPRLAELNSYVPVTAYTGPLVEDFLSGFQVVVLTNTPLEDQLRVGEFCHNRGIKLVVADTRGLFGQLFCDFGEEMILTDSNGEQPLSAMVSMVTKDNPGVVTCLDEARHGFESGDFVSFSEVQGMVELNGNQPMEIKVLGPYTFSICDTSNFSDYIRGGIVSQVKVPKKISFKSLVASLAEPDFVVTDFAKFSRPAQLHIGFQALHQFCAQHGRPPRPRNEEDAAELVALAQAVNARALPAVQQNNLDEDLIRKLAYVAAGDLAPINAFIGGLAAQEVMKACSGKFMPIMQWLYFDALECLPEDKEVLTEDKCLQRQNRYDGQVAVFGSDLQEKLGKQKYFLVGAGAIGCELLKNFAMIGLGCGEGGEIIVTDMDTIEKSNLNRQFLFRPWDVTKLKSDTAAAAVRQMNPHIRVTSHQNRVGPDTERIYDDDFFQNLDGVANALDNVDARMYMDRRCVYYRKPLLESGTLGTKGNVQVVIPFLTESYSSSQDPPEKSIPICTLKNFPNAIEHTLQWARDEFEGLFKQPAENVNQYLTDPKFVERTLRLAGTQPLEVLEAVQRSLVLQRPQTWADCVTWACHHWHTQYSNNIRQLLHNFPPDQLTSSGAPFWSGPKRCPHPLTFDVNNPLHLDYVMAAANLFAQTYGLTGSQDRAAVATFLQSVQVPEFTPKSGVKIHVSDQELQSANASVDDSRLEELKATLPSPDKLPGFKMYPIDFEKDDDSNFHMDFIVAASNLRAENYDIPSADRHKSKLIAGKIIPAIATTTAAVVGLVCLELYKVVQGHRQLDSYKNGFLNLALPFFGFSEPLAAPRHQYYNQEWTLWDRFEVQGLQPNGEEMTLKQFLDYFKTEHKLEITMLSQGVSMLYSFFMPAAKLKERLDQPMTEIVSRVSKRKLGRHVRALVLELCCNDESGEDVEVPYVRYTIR

MGC-803 [7] = test: Induction of apoptosis in human MGC-803 cells assessed as total apoptotic cells at 0.5 micromol/L incubated for 48 hrs by Annexin V-FITC/PI staining based flow cytometric analysis (reference value: 3.2%); format: functional; conditions: dose 0.5 µmol/L, at 0.5 µM
MGC-803 [8] = test: Antiproliferative activity against human MGC-803 cells assessed as inhibition of cell growth incubated for 48 hrs by MTT assay; format: functional, cell-based; conditions: MGC-803, 48 h
MGC-803 [9] = test: Induction of apoptosis in human MGC-803 cells assessed as total apoptotic cells at 1 micromol/L incubated for 48 hrs by Annexin V-FITC/PI staining based flow cytometric analysis (reference value: 3.2%); format: functional; conditions: dose 1 µmol/L, at 1 µM
MGC-803 [10] = test: Induction of apoptosis in human MGC-803 cells assessed as total apoptotic cells at 2 micromol/L incubated for 48 hrs by Annexin V-FITC/PI staining based flow cytometric analysis (reference value: 3.2%); format: functional; conditions: dose 2 µmol/L, at 2 µM
CCRF-CEM = test: Antiproliferative activity against human CCRF-CEM assessed as net growth rate at <1 uM […] by CellTiter-Glo assay relative to control; format: functional
NEDD8 activating enzyme = molecular target: T7, NEDD8 activating enzyme (Homo sapiens, UniProt Q8TBC4); test: Inhibition of recombinant human APPBP1/UBA3 expressed in Escherichia coli assessed as Ub/Ubl thioester transfer
T7 sequence (Q8TBC4 whole entry): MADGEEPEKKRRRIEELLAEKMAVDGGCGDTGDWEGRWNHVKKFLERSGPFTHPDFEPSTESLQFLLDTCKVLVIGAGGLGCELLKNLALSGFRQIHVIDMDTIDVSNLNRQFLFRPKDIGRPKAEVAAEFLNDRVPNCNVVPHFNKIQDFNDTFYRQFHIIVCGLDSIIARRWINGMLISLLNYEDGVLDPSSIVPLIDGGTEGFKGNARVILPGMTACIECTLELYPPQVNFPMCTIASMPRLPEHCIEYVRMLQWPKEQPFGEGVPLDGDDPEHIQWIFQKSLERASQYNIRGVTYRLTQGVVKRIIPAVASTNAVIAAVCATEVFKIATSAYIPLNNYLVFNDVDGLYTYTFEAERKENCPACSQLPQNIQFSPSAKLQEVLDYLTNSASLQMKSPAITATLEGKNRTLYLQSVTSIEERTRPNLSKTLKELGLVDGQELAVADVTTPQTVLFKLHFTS
T7 sequence (Q13564 whole entry): T5 sequence (Q13564 whole entry)

[11] = Toxicity in SCID mouse xenografted with human TMD8 cells expressing luciferase gene assessed as survival days at 100 mg/kg/day, iv administered at 1 to 21 days cycle for 8 cycles; format: organism-based; conditions: in vivo, time 1-21 day
[12] = molecular target: T6, Ubiquitin-like modifier-activating enzyme 1; test: Inhibition of recombinant C-terminal His-tagged human full length UAE1 expressed in Escherichia coli BL21 (lambdaDE3) assessed as reduction in transfer of Ub to UBE2C enzyme
SUMO-activating enzyme [13] = molecular target: T2, SUMO-activating enzyme; test: Inhibition of recombinant human SAE1/UBA2 expressed in Escherichia coli assessed as reduction in transfer of […] to UBE2I enzyme

T2 sequence (Q9UBE0 whole entry): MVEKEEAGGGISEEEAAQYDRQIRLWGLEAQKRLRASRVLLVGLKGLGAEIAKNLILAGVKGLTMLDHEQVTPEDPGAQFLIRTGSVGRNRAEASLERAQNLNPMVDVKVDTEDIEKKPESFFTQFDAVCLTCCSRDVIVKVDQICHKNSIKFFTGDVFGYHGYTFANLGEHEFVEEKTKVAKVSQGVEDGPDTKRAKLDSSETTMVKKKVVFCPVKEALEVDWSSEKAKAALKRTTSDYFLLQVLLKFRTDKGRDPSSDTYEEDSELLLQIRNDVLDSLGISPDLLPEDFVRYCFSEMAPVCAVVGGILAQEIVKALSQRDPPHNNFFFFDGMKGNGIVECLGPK
T2 sequence (Q9UBT2 whole entry): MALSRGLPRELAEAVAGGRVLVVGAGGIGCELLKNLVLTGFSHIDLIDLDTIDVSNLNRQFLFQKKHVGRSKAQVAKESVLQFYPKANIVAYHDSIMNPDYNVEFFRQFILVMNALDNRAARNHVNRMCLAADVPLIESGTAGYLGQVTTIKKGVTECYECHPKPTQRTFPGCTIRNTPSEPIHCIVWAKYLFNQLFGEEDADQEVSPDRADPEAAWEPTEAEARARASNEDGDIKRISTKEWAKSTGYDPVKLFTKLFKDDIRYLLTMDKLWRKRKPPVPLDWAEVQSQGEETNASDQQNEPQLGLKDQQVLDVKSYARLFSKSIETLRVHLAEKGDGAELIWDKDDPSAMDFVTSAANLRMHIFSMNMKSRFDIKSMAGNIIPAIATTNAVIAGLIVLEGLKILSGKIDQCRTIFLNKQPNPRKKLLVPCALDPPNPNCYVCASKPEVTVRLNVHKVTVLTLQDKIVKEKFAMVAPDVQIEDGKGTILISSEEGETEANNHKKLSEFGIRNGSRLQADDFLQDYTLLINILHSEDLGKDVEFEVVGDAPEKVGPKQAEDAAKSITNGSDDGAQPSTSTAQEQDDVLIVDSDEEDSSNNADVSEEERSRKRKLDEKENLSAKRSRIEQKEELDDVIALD

- IC50 [1]: > 10 µM
- IC50 (SUMO-activating enzyme [2]): 8.2 µM
- IC50 [3]: 1800 nM
Structure (SMILES): NS(=O)(=O)OC[C@@H]1C[C@@H](n2ccc3c(N[C@H]4CCc5ccccc54)ncnc32)C[C@@H]1O [PEVONEDISTAT]

- IC50 [4]: 10.3 µM
Structure (SMILES): CC(C)=CCc1c(O)c(CC=C(C)C)c2oc3c(O)ccc(O)c3c(=O)c2c1O [GARTANIN]

- IC50 [5]: 0.5 nM
- IC50 [6]: 66 nM
Structure (SMILES): COC(=O)N1CCC2(CC1)C[C@H](Nc1ncnc3c1nnn3[C@@H]1C[C@@H](COS(N)(=O)=O)[C@@H](O)C1)c1ccccc12

- IC50 (MGC-803 [8]): 1590 nM
Structure (SMILES): COc1ccc(CN(C(=O)Cn2ccc3cc(OC)ccc32)c2cc(OC)c(OC)c(OC)c2)cc1
- Activity (MGC-803 [7]): 4.4%
- Activity (MGC-803 [9]): 11.1%
- Activity (MGC-803 [10]): 65.2%

Structure (SMILES): CCOc1cccc(F)c1C#Cc1cn([C@@H]2O[C@H](CNS(N)(=O)=O)[C@@H](O)[C@H]2O)c2ncnc(N)c12
- Activity (CCRF-CEM): 0%
- IC50 (NEDD8 activating enzyme): 0.955 nM
- Survival [11]: > 159 days
- IC50 [12]: 449 nM
- IC50 (SUMO-activating enzyme [13]): 1280 nM
